In patent US6479435B1, “Diaryl ethers and processes for their preparation and herbicidal and desiccant compositions containing them” (ISK Americas Incorporated, priority 1997, dated 2002):

Experiments:
Type in all cases: in vivo
[1] = tested on: soybean (Glycine max L., var. Pella 86, SOY); experiment: Post-emerge greenhouse test, crop damage rating; conditions: 14 days after application
How it was run: (§1)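 Plants at the 2-3 leaf stage, sown 8-21 days earlier, were track-sprayed post-emergence with compound in acetone plus 0.25% v/v non-ionic surfactant at 63-1000 g ai/ha (187 l/ha). Damage was rated at 14 days on a 0-100 scale (0 none, 100 all plants dead), for both crop injury and weed control.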

[2] = tested on: soybean (Glycine max L., var. Pella 86, SOY); experiment: Pre-emerge greenhouse test, crop damage rating; conditions: 14 days after application, rating scale 0-100
How it was run: (§2)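 Seeds sown in sandy loam one day before track-sprayer application of acetone solutions at 125–1000 g ai/ha (187 l/ha), then surface-watered to incorporate and bottom-watered. Injury scored visually at 14 days on a 0–100 scale (0 no damage, 100 complete death).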

[3] = tested on: field corn (Zea mays L., var. Dekalb 535, CORN); experiment: Pre-emerge greenhouse test, crop damage rating; conditions: 14 days after application, rating scale 0-100
How it was run: as §2

[4] = tested on: upland rice (Oryza sp., var.Tebonnet, RICE); experiment: Pre-emerge greenhouse test, crop damage rating; conditions: 14 days after application, rating scale 0-100
How it was run: as §2

[5] = tested on: field corn (Zea mays L., var. Dekalb 535, CORN); experiment: Post-emerge greenhouse test, crop damage rating; conditions: 14 days after application
How it was run: as §1

[6] = tested on: upland rice (Oryza sp., var.Tebonnet, RICE); experiment: Post-emerge greenhouse test, crop damage rating; conditions: 14 days after application
How it was run: as §1

[7] = tested on: ivyleaf morningglory (Ipomoea hederacea, IPOHE); experiment: Post-emerge greenhouse herbicide test, phytotoxicity rating; conditions: 14 days after application
How it was run: as §1

[8] = tested on: redroot pigweed (Amaranthus retroflexus, AMARE); experiment: as above; conditions: 14 days after application
How it was run: as §1

[9] = tested on: green foxtail (Setaria viridis, SETVI); experiment: as above; conditions: 14 days after application
How it was run: as §1

[10] = tested on: lambsquarters (Chenopodium album, CHEAL); experiment: as above; conditions: 14 days after application
How it was run: as §1

[11] = tested on: velvetleaf (Abutilon theophrasti, ABUTH); experiment: as above; conditions: 14 days after application
How it was run: as §1

[12] = tested on: sicklepod (Cassia obtusifolia, CASOB); experiment: as above; conditions: 14 days after application
How it was run: as §1

[13] = tested on: Johnsongrass (Sorghum halepense, SORHA); experiment: as above; conditions: 14 days after application
How it was run: as §1

[14] = tested on: barnyardgrass (Echinochloa crusgalli, ECHCG); experiment: as above; conditions: 14 days after application
How it was run: as §1

[15] = tested on: large crabgrass (Digitaria sanguinalis, DIGSA); experiment: as above; conditions: 14 days after application
How it was run: as §1

[16] = tested on: common ragweed (Ambrosia artemisiifolia L., AMBEL); experiment: as above; conditions: 14 days after application
How it was run: as §1

[17] = tested on: common ragweed (Ambrosia artemisiifolia L., AMBEL); experiment: Pre-emerge greenhouse herbicide test, phytotoxicity rating; conditions: 14 days after application, rating scale 0-100
How it was run: as §2

[18] = tested on: ivyleaf morningglory (Ipomoea hederacea, IPOHE); experiment: as above; conditions: 14 days after application, rating scale 0-100
How it was run: as §2

[19] = tested on: redroot pigweed (Amaranthus retroflexus, AMARE); experiment: as above; conditions: 14 days after application, rating scale 0-100
How it was run: as §2

[20] = tested on: green foxtail (Setaria viridis, SETVI); experiment: as above; conditions: 14 days after application, rating scale 0-100
How it was run: as §2

[21] = tested on: lambsquarters (Chenopodium album, CHEAL); experiment: as above; conditions: 14 days after application, rating scale 0-100
How it was run: as §2

[22] = tested on: velvetleaf (Abutilon theophrasti, ABUTH); experiment: as above; conditions: 14 days after application, rating scale 0-100
How it was run: as §2

[23] = tested on: sicklepod (Cassia obtusifolia, CASOB); experiment: as above; conditions: 14 days after application, rating scale 0-100
How it was run: as §2

[24] = tested on: Johnsongrass (Sorghum halepense, SORHA); experiment: as above; conditions: 14 days after application, rating scale 0-100
How it was run: as §2

[25] = tested on: barnyardgrass (Echinochloa crusgalli, ECHCG); experiment: as above; conditions: 14 days after application, rating scale 0-100
How it was run: as §2

[26] = tested on: large crabgrass (Digitaria sanguinalis, DIGSA); experiment: as above; conditions: 14 days after application, rating scale 0-100
How it was run: as §2

O=c1n(CCCF)nnn1-c1cc(Oc2ncccc2C(F)(F)F)c(Cl)cc1F [Compound 6-6]
SOY crop damage rating (0-100) ([1]; 63 g al/ha): 10 | SOY crop damage rating (0-100) ([1]; 500 g al/ha): 50 | crop damage rating SOY ([2]; 125 g ai/ha): 0 | crop damage rating SOY ([2]; 500 g ai/ha): 10 | crop damage rating CORN ([3]; 125 g ai/ha): 0 | crop damage rating CORN ([3]; 500 g ai/ha): 0 | crop damage rating RICE ([4]; 125 g ai/ha): 0 | crop damage rating RICE ([4]; 500 g ai/ha): 30 | CORN crop damage rating (0-100) ([5]; 63 g al/ha): 5 | CORN crop damage rating (0-100) ([5]; 500 g al/ha): 15 | RICE crop damage rating (0-100) ([6]; 63 g al/ha): 20 | RICE crop damage rating (0-100) ([6]; 500 g al/ha): 40 | IPOHE phytotoxicity rating (0-100) ([7]; 63 g al/ha): 60 | IPOHE phytotoxicity rating (0-100) ([7]; 500 g al/ha): 95 | AMARE phytotoxicity rating (0-100) ([8]; 63 g al/ha): 70 | AMARE phytotoxicity rating (0-100) ([8]; 500 g al/ha): 95 | SETVI phytotoxicity rating (0-100) ([9]; 63 g al/ha): 10 | SETVI phytotoxicity rating (0-100) ([9]; 500 g al/ha): 40 | CHEAL phytotoxicity rating (0-100) ([10]; 63 g al/ha): 90 | CHEAL phytotoxicity rating (0-100) ([10]; 500 g al/ha): 100 | ABUTH phytotoxicity rating (0-100) ([11]; 63 g al/ha): 50 | ABUTH phytotoxicity rating (0-100) ([11]; 500 g al/ha): 95 | CASOB phytotoxicity rating (0-100) ([12]; 63 g al/ha): 0 | CASOB phytotoxicity rating (0-100) ([12]; 500 g al/ha): 30 | SORHA phytotoxicity rating (0-100) ([13]; 63 g al/ha): 0 | SORHA phytotoxicity rating (0-100) ([13]; 500 g al/ha): 70 | ECHCG phytotoxicity rating (0-100) ([14]; 63 g al/ha): 20 | ECHCG phytotoxicity rating (0-100) ([14]; 500 g al/ha): 70 | DIGSA phytotoxicity rating (0-100) ([15]; 63 g al/ha): 0 | DIGSA phytotoxicity rating (0-100) ([15]; 500 g al/ha): 10 | AMBEL phytotoxicity rating (0-100) ([16]; 63 g al/ha): 20 | AMBEL phytotoxicity rating (0-100) ([16]; 500 g al/ha): 20 | phytotoxicity rating AMBEL ([17]; 125 g ai/ha): 30 | phytotoxicity rating AMBEL ([17]; 500 g ai/ha): 60 | phytotoxicity rating IPOHE ([18]; 125 g ai/ha): 30 | phytotoxicity rating IPOHE ([18]; 500 g ai/ha): 50 | phytotoxicity rating AMARE ([19]; 125 g ai/ha): 95 | phytotoxicity rating AMARE ([19]; 500 g ai/ha): 100 | phytotoxicity rating SETVI ([20]; 125 g ai/ha): 95 | phytotoxicity rating SETVI ([20]; 500 g ai/ha): 100 | phytotoxicity rating CHEAL ([21]; 125 g ai/ha): 100 | phytotoxicity rating CHEAL ([21]; 500 g ai/ha): 100 | phytotoxicity rating ABUTH ([22]; 125 g ai/ha): 80 | phytotoxicity rating ABUTH ([22]; 500 g ai/ha): 100 | phytotoxicity rating CASOB ([23]; 125 g ai/ha): 10 | phytotoxicity rating CASOB ([23]; 500 g ai/ha): 0 | phytotoxicity rating SORHA ([24]; 125 g ai/ha): 30 | phytotoxicity rating SORHA ([24]; 500 g ai/ha): 95 | phytotoxicity rating ECHCG ([25]; 125 g ai/ha): 20 | phytotoxicity rating ECHCG ([25]; 500 g ai/ha): 60 | phytotoxicity rating DIGSA ([26]; 125 g ai/ha): 20 | phytotoxicity rating DIGSA ([26]; 500 g ai/ha): 100
